Results on 26 compounds are retold here after patent publication US6777422B2, “Substituted tetrahydroisoquinolines as C5a receptor modulators” (Neurogen Corp., priority 2002, dated 2004).

In the first experiment the target is T1, human C5a receptor (Homo sapiens, UniProt P21730).
T1 construct: endogenous in cells; host or cells: U937 cells differentiated with 1 mM dibutyryl cAMP
T1 sequence (P21730 1-350): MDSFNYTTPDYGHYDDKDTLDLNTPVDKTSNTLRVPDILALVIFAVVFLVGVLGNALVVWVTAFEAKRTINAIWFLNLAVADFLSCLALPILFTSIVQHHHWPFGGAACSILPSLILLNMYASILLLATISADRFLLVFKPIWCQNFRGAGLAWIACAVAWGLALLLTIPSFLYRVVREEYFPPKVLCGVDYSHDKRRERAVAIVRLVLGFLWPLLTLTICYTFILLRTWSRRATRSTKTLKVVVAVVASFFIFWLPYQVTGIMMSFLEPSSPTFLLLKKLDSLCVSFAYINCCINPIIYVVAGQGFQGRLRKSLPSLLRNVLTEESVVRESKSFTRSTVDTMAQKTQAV
The experiment in a line: C5a receptor mediated calcium mobilization assay (Example 20). It counts as cell-based. To be noted: differentiated U937 cells, read-out: Ca2+ (Ki in the standard assay of C5a receptor mediated calcium mobilization). On the procedure:
Calcium Mobilization Assays
U937 cells are grown in differentiation media (1 mM dibutyryl cAMP in RPMI 1640 medium containing 10% fetal bovine serum) for 48 hrs at 37° C. then reseeded onto 96-well plates suitable for use in a FLIPR™ Plate Reader (Molecular Devices Corp., Sunnyvale Calif.). Cells are grown an additional 24 hours (to 70-90% confluence) before the assay. The cells are then washed once with Krebs Ringer solution. FLUO-3 calcium sensitive dye (Molecular Probes, Inc. Eugene, Oreg.) is added to 10 μg/mL and incubated with the cells at room temperature for 1 to 2 hours. The 96 well plates are then washed to remove excess dye. Fluorescence responses, measured by excitation at 480 nm and emission at 530 nm, are monitored upon the addition of human C5a to the cells to a final concentration of 0.01-30.0 nM, using the FLIPR™ device (Molecular Devices).
C. Assays for the Identification of Receptor Modulatory Agents: Antagonists and Agonists
The calcium mobilization assay described above may be readily adapted for identifying test compounds that have agonist or antagonist activity at the human C5a receptor.
For example, in order to identify antagonist compounds, differentiated U937 cells are washed and incubated with Fluo-3 dye as described above. One hour prior to measuring the fluorescence signal, a subset of the cells is incubated with 1 μM of at least one compound to be tested. The fluorescence response upon the subsequent addition of 0.3 nM (final concentration) human recombinant C5a is monitored using the FLIPR™ plate reader. Antagonist compounds elicit at least a 2-fold decrease in the fluorescence response relative to that measured in the presence of human C5a alone. Preferred antagonist compounds elicit at least a 5-fold, preferably at least a 10-fold, and more preferably at least a 20-fold decrease in the fluorescence response relative to that measured in the presence of human C5a alone.
With `Cc1ccccc1[C@@H]1c2ccccc2CCN1[C@@H](C)C(=O)N(Cc1ccccc1F)C1Cc2ccccc2C1` [Compound 42, (2S)-N-(indan-2-yl)-N-(2-fluorobenzyl)-2-[(1R)-1-(2-methylphenyl)-3,4-dihydroisoquinolin-2(1H)-yl]propanamide], the Ki was < 1 µM.

As to `Cc1cccc([C@@H]2c3ccccc3CCN2[C@@H](C)C(=O)N(Cc2ccccc2F)C2Cc3ccccc3C2)c1C` [Compound 68, (2S)-N-(indan-2-yl)-2-[(1S)-1-(2,3-dimethylphenyl)-3,4-dihydroisoquinolin-2(1H)-yl]-N-(2-fluorobenzyl)propanamide], the Ki is < 1 µM. Take `Cc1ccccc1C1c2ccccc2CCN1CC(=O)N(Cc1cc(O)ccc1F)C1Cc2ccccc2C1` (centres unmarked) [Compound 101, N-(indan-2-yl)-N-(2-fluoro-5-hydroxybenzyl)-2-[1-(2-methylphenyl)-3,4-dihydroisoquinolin-2(1H)-yl]acetamide]: the Ki is < 1 µM. For the compound `O=C(CN1CCc2ccccc2[C@H]1c1ccccc1Br)N(Cc1ccccc1F)C1Cc2ccccc2C1` [Compound 40, 2-[(1S)-1-(2-bromophenyl)-3,4-dihydroisoquinolin-2(1H)-yl]-N-(indan-2-yl)-N-(2-fluorobenzyl)acetamide], the Ki is < 1 µM. On the same count and under the same terms, next, `Cc1ccc(F)cc1C1c2ccccc2CCN1CC(=O)N(Cc1ccccc1F)C1Cc2ccccc2C1` (centres unmarked) [Compound 57, N-(indan-2-yl)-N-(2-fluorobenzyl)-2-[1-(5-fluoro-2-methylphenyl)-3,4-dihydroisoquinolin-2(1H)-yl]acetamide]: < 1 µM; `C[C@@H](C(=O)N(CCc1ccccc1F)Cc1ccc(O)cc1)N1CCc2ccccc2[C@@H]1c1ccccc1Cl` [Compound 104, (2S)-2-[(1R)-1-(2-chlorophenyl)-3,4-dihydroisoquinolin-2(1H)-yl]-N-[2-(2-fluorophenyl)ethyl]-N-(4-hydroxybenzyl)propanamide]: < 1 µM. On the same count and under the same terms, next, `O=C(CN1CCc2ccccc2C1c1c(Cl)cccc1Cl)N(Cc1ccccc1F)C1Cc2ccccc2C1` (centres unmarked) [Compound 95, 2-[1-(2,6-dichlorophenyl)-3,4-dihydroisoquinolin-2(1H)-yl]-N-(indan-2-yl)-N-(2-fluorobenzyl)acetamide]: < 1 µM; `Cc1ccccc1C1c2ccccc2CCN1Cc1cnc(-c2ccccc2)n1C1Cc2ccccc2C1` (centres unmarked) [Compound 33, 2-{[1-(indan-2-yl)-2-phenyl-1H-imidazol-5-yl]methyl}-1-(2-methylphenyl)-1,2,3,4-tetrahydroisoquinoline]: < 1 µM; `O=C(CN1CCc2ccccc2C1c1ccc(O)cc1)N(Cc1ccccc1F)C1Cc2ccccc2C1` (centres unmarked) [Compound 123, N-(indan-2-yl)-N-(2-fluorobenzyl)-2-[1-(4-hydroxyphenyl)-3,4-dihydroisoquinolin-2(1H)-yl]acetamide]: < 1 µM. Take `C[C@@H](C(=O)N(Cc1ncccc1F)C1Cc2ccccc2C1)N1CCc2ccccc2[C@@H]1c1cccc2ccccc12` [Compound 126, (2S)-N-(indan-2-yl)-N-[(3-fluoropyridin-2-yl)methyl]-2-[(1R)-1-(1-naphthyl)-3,4-dihydroisoquinolin-2(1H)-yl]propanamide]: the Ki was < 1 µM. The same measure, in the same setting: then `Cc1ccccc1[C@@H]1c2c(ccc(C)c2C)CCN1CC(=O)N(Cc1ccccc1F)C1Cc2ccccc2C1` (stereo in doubt) [Compound 73, N-(indan-2-yl)-2-[7,8-dimethyl-1-(2-methylphenyl)-3,4-dihydroisoquinolin-2(1H)-yl]-N-(2-fluorobenzyl)acetamide], with < 1 µM. As to `Cc1cccc(C2c3ccccc3CCN2CC(=O)N(Cc2ccccc2F)C2Cc3ccccc3C2)c1Cl` (centres unmarked) [Compound 47, 2-[1-(2-chloro-3-methylphenyl)-3,4-dihydroisoquinolin-2(1H)-yl]-N-(indan-2-yl)-N-(2-fluorobenzyl)acetamide], the Ki was < 1 µM. The same measure, in the same setting: next, `Cc1cc(C)c(C2c3ccccc3CCN2CC(=O)N(Cc2ccccc2F)C2Cc3ccccc3C2)c(C)c1` (centres unmarked) [Compound 80, N-(indan-2-yl)-N-(2-fluorobenzyl)-2-(1-mesityl-3,4-dihydroisoquinolin-2(1H)-yl)acetamide]: < 1 µM. Still for that read-out and setting: then `C[C@@H](C(=O)N(Cc1cccc(C#N)c1)C1Cc2ccccc2C1)N1CCc2ccccc2[C@@H]1c1ccccc1Cl` [Compound 111, (2S)-2-[(1R)-1-(2-chlorophenyl)-3,4-dihydroisoquinolin-2(1H)-yl]-N-(3-cyanobenzyl)-N-(indan-2-yl)propanamide], with < 1 µM. Same read-out and setting: next, `C[C@@H](C(=O)N(Cc1ccccc1F)C1Cc2ccccc2C1)N1CCc2ccccc2[C@@H]1c1c(Cl)cccc1Cl` [Compound 102, (2S)-2-[(1R)-1-(2,6-dichlorophenyl)-3,4-dihydroisoquinolin-2(1H)-yl]-N-(indan-2-yl)-N-(2-fluorobenzyl)propanamide]: < 1 µM; `C[C@@H](C(=O)N(Cc1ccccc1F)C1Cc2ccccc2C1)N1CCc2ccccc2[C@@H]1c1c(F)cccc1Cl` [Compound 103, (2S)-2-[(1R)-1-(2-chloro-6-fluorophenyl)-3,4-dihydroisoquinolin-2(1H)-yl]-N-(indan-2-yl)-N-(2-fluorobenzyl)propanamide]: < 1 µM; `C[C@@H](C(=O)N(CCc1ccccc1F)Cc1ccccc1F)N1CCc2ccccc2[C@@H]1c1ccccc1Cl` [Compound 109, (2S)-2-[(1R)-1-(2-chlorophenyl)-3,4-dihydroisoquinolin-2(1H)-yl]-N-(2-fluorobenzyl)-N-[2-(2-fluorophenyl)ethyl] propanamide]: < 1 µM. For the compound `O=C(CN1CCc2ccccc2C1c1cccc2ccccc12)N(Cc1ccccc1F)C1Cc2ccccc2C1` (centres unmarked) [Compound 44, N-(indan-2-yl)-N-(2-fluorobenzyl)-2-[1-(1-naphthyl)-3,4-dihydroisoquinolin-2(1H)-yl]acetamide], the Ki was < 1 µM.

Take `O=C(CN1CCc2ccccc2C1c1c(F)cccc1C(F)(F)F)N(Cc1ccccc1F)C1Cc2ccccc2C1` (centres unmarked) [Compound 99, N-(indan-2-yl)-N-(2-fluorobenzyl)-2-[1-[2-fluoro-6-(trifluoromethyl)phenyl]-3,4-dihydroisoquinolin-2(1H)-yl]acetamide]: the Ki is < 1 µM. Take `C[C@@H](C(=O)N(Cc1ccccc1F)C1Cc2ccccc2C1)N1CCc2ccccc2[C@@H]1c1ccccc1C(F)(F)F` [Compound 69, (2S)-N-(indan-2-yl)-N-(2-fluorobenzyl)-2-[(1R)-1-[2-(trifluoromethyl)phenyl]-3,4-dihydroisoquinolin-2(1H)-yl]propanamide]: the Ki is < 1 µM. On to `C[C@@H](C(=O)N(CCc1ccccc1)Cc1ccccc1F)N1CCc2ccccc2[C@@H]1c1ccccc1Cl` [Compound 91, (2S)-2-[(1R)-1-(2-chlorophenyl)-3,4-dihydroisoquinolin-2(1H)-yl]-N-(2-fluorobenzyl)-N-(2-phenylethyl)propanamide], for which the Ki is < 1 µM.

Regarding `O=C(CN1CCc2ccccc2[C@H]1c1cccc(Cl)c1Cl)N(Cc1ccccc1F)C1Cc2ccccc2C1` (stereo in doubt) [Compound 36, 2-[1-(2,3-dichlorophenyl)-3,4-dihydroisoquinolin-2(1H)-yl]-N-(indan-2-yl)-N-(2-fluorobenzyl)acetamide], the Ki was < 1 µM.

The same experiment, now with this note: differentiated U937 cells, unit inferred, read-out: Ca2+ (numeric value, C5a receptor mediated calcium mobilization).
In the case of `Cc1ccccc1C1c2ccsc2CCN1CC(=O)N(Cc1ccccc1F)C1Cc2ccccc2C1` (centres unmarked) [Compound 136, N-(2-Fluoro-benzyl)-N-indan-2-yl-2-(4-o-tolyl-6,7-dihydro-4H-thieno[3,2-c]pyridin-5-yl)-acetamide], the Ki stood at 0.0399 µM. Regarding `COc1ccccc1C1CCCCN1CC(=O)N(Cc1ccccc1F)C1Cc2ccccc2C1` (centres unmarked) [Compound 130, N-(2-Fluoro-benzyl)-N-indan-2-yl-2-[2-(2-methoxy-phenyl)-piperidin-1-yl]-acetamide], the Ki was 0.405 µM. On to `Cc1ccccc1[C@@H]1CCCCN1[C@@H](C)C(=O)N(Cc1ccccc1F)C1Cc2ccccc2C1` (stereo in doubt) [Compound 132, N-(2-Fluoro-benzyl)-N-indan-2-yl-2-(2-o-tolyl-piperidin-1-yl)-propionamide], for which the Ki is 0.115 µM. As for `Cc1ccccc1C1CCCCN1CC(=O)N(Cc1ccccc1F)C1Cc2ccccc2C1` (centres unmarked) [Compound 129, N-(2-Fluoro-benzyl)-N-indan-2-yl-2-(2-o-tolyl-piperidin-1-yl)-acetamide], the Ki turned out to be 0.131 µM.
